# Like-named read-outs stand apart in the source and are kept apart here.
# What was measured:
# [1] = Solubility in gastric juice or intestinal juice model fluid (precipitation method using DMSO); assay type: physicochemical; conditions: room temperature
# Method: Solubility in Gastric Juice or Intestinal Juice Model Fluid
# Measurement was performed by a precipitation method using DMSO. Specifically, each of the dimethyl sulfoxide (DMSO) solutions of the compounds was individually added to 1st fluid for Disintegration Test of Japanese Pharmacopoeia (pH: 1.2) or 2nd fluid for Disintegration Test of Japanese Pharmacopoeia (pH: 6.8), and the mixtures were stirred by shaking at room temperature for 24 hours. Subsequently, insoluble substances in each mixture were removed by filtration, and the UV absorption of each filtrate was measured. The obtained values were individually applied to the calibration curves of the compounds prepared in advance to calculate the concentrations of the compounds dissolved (μg/mL).
# [2] = pH 1.2, simulated gastric fluid, kinetic from dmso stock, 1st fluid for Disintegration Test of Japanese Pharmacopoeia (pH: 1.2), read-out: Solubility (μg/mL) 1st fluid
# [3] = pH 6.8, kinetic from dmso stock, 2nd fluid for Disintegration Test of Japanese Pharmacopoeia (pH: 6.8), read-out: Solubility (μg/mL) 2nd fluid
Compound,"solubility at 24 h [1, 2] [µg/mL]","solubility at 24 h [1, 3] [µg/mL]",melting point
COc1cc(OCc2ccc(C(F)(F)F)cn2)ccc1-c1cn(C)c(-c2ccc(Cl)nc2)n1 [Example 168],> 95,< 0.3,186 to 190 °C
COCn1cc(-c2ccc(OCc3ccc(C(F)(F)F)cn3)cc2OC)nc1-c1ccc(F)nc1 [Example 166],> 98,0.6,172 to 174 °C
COc1cc(-c2c[nH]c(C3CCCC3)n2)ccc1OCc1ccc(C(F)(F)F)cn1 [Example 78],> 83,20.6,207 to 210 °C
COc1cc(OCc2ccc(Br)cc2F)ccc1-c1c[nH]c(-c2ccc(F)nc2)n1 [Example 126],7.1,5.6,172 to 176 °C
COc1cc(OCc2ccc(C(F)(F)F)nc2)ccc1-c1c[nH]c(-c2ccc(F)cn2)n1 [Example 26],8.7,1.3,176 to 178 °C
COc1cc(-c2nc(-c3ccc(Cl)nc3)[nH]c2C)ccc1OCc1ccc(C(F)(F)F)cn1 [Example 30],24,0.6,228 to 230 °C (dec.)
COc1cc(-c2c[nH]c(C3CCC(F)(F)CC3)n2)ccc1OCc1ccc(C(F)(F)F)cn1 [Example 62],> 101,1.3,> 250 °C
COc1cc(OCc2ccc(Br)cc2F)ccc1-c1c[nH]c(-c2ccccn2)n1 [Example 91],42.8,0.6,143 to 146 °C
COc1cc(OCc2ccc(Br)cc2F)ccc1-c1c[nH]c(-c2ccc(C)nc2)n1 [Example 86],73.5,< 0.3,218 to 220 °C (dec.)
COc1cc(-c2c[nH]c(C34CC5CC(CC(C5)C3)C4)n2)cc(OC)c1OCc1ccc(C(F)(F)F)cn1 [Example 66],56.9,0.9,144 to 168 °C
COc1cc(OCc2ncc(F)cc2F)ccc1-c1cnc(-c2ccc(F)nc2)[nH]1 [Example 140],7.8,4.8,188 to 191 °C
COc1cc(OCc2ccc(C(F)(F)F)cn2)ccc1-c1c[nH]c(-c2ccccn2)n1 [Example 88],54.1,0.5,214 to 216 °C
COc1cc(OCc2ccc(C(F)(F)F)cn2)ccc1-c1c(C)nc(-c2ccc(F)nc2)n1C [Example 159],> 94,4,136 to 138 °C
COc1cc(OCc2ncc(C(F)(F)F)cc2F)ccc1-c1cnc(-c2ccc(Cl)nc2)[nH]1 [Example 102],92.5,8.9,164 to 186 °C
COc1cc(OCc2ccc(C(F)(F)F)nc2)ccc1-c1nc(-c2ccc(Cl)cn2)[nH]c1Cl [Example 228],9.7,2.6,193 to 196 °C
COc1cc(OCc2ccc(C(F)(F)F)nc2)ccc1-c1c[nH]c(C2CCCCC2)n1 [Example 53],> 86,4.6,62 to 73 °C
COc1cc(OCc2ncccc2C#N)ccc1-c1cnc(C2CCC(F)(F)CC2)[nH]1 [Example 7],84,40.2,69 to 89 °C
COc1cc(OCc2ccc(C(F)(F)F)nc2)ccc1-c1cnc(C2CC(F)(F)C2)[nH]1 [Example 4],86.6,0.9,167 to 169 °C
COc1cc(OCc2ncc(F)cc2F)ccc1-c1[nH]c(-c2ccc(Cl)nc2)nc1Br [Example 246],15.6,5,190 to 193 °C
COc1cc(OC(C)c2ncc(C(F)(F)F)cc2F)ccc1-c1[nH]c(-c2ccc(F)nc2)nc1Cl (stereo not drawn) [Example 289],10.8,2.2,155 to 159 °C
COc1cc(OCc2ccc(C(F)(F)F)nc2)c(C)cc1-c1[nH]c(C2CCC(F)(F)CC2)nc1Cl [Example 192],22.6,0.6,175 to 178 °C
COc1cc(OCn2cccn2)ccc1-c1[nH]c(C2CCC(F)(F)CC2)nc1Cl [Example 196],> 85,< 7.5,182 to 184 °C

Compound,"solubility at 24 h [1, 2] [µg/mL]","solubility at 24 h [1, 3] [µg/mL]",melting point
COc1cc(OCc2ccc(C(F)(F)F)nc2)c(C)cc1-c1[nH]c(C2CCC(F)(F)CC2)nc1Br [Example 187],75.6,< 0.4,195 to 196 °C
COc1cc(O[C@@H](C)c2ccc(C(F)(F)F)cc2)ccc1-c1[nH]c(-c2ccc(F)nc2)nc1Cl [Example 288],< 0.3,23.4,137 to 139 °C
COc1cc(OCc2cncc(C(F)(F)F)c2)ccc1-c1cnc(-c2ccc(F)nc2)[nH]1 [Example 137],39.9,36.1,210 to 212 °C (dec.)
COc1cc(OCc2ccc(C(F)(F)F)nc2)ccc1-c1cn(C)c(-c2ccc(F)nc2)n1 [Example 163],> 92,1.4,163 to 165 °C
"COc1cc(OCc2ccc(C(F)(F)F)cn2)ccc1-c1cnc(-c2ccc(C#N)nc2)[nH]1 [Example 150, 5-[5-[2-methoxy-4-((5-(trifluoromethyl)pyridin-2-yl)methoxy)phenyl]-1H-imidazol-2-yl]picolinonitrile]",2.4,0.3,241 to 244 °C (dec.)
COc1cc(-c2c[nH]c(-c3ccc(C)nc3)n2)ccc1OCc1ccc(C(F)(F)F)cn1 [Example 85],85.4,1,201 to 203 °C (dec.)
COc1cc(-c2c[nH]c(C3CCCCC3)n2)cc(OC)c1OCc1ccc(C(F)(F)F)cn1 [Example 76],< 8.5,1,183 to 186 °C
COc1cc(OC(C)c2ccc(C(F)(F)F)cc2)ccc1-c1[nH]c(-c2ccc(F)nc2)nc1Cl (stereo not drawn) [Example 236],< 0.3,29.9,137 to 146 °C
COc1cc(OCc2ccc(C(F)(F)F)cn2)ccc1-c1nc(-c2ccc(F)nc2)[nH]c1Br [Example 223],> 105,< 0.4,176 to 178 °C
COc1cc(O[C@@H](C)c2ccc(C(F)(F)F)nc2)ccc1-c1[nH]c(-c2ccc(F)nc2)nc1Cl [Example 291],9.9,3.5,74 to 97 °C
COc1cc(OCc2ncc(C(F)(F)F)cc2F)ccc1-c1[nH]c(-c2ccc(Cl)nc2)nc1Cl [Example 245],90.2,11.7,116 to 131 °C
COc1cc(OCc2ccc(C(F)(F)F)nc2)ccc1-c1c(Cl)nc(-c2ccc(F)nc2)n1C [Example 311],5.6,< 0.4,138 to 140 °C
COc1cc(-c2c[nH]c(-c3ccc(C(F)(F)F)nc3)n2)ccc1OCc1ccc(C(F)(F)F)cn1 [Example 97],15.2,2.2,201 to 203 °C
COc1cc(-c2c[nH]c(-c3ccc(Cl)nc3)n2)ccc1OCc1ccc(C(F)(F)F)cn1 [Example 93],10,0.9,> 280 °C
COc1cc(-c2c[nH]c(-c3ccc(F)nc3)n2)ccc1OCc1ncccc1F [Example 119],44.7,5.2,68 to 79 °C
COc1cc(OCc2ccc(C(F)(F)F)cn2)ccc1-c1c[nH]c(C2CCC(F)(F)CC2)n1 [Example 61],> 101,1.6,232 to 237 °C
COc1cc(OCc2ccc(C(F)(F)F)cn2)ccc1-c1c[nH]c(-c2ccc(F)cn2)n1 [Example 41],23.3,1.3,152 to 154 °C
COc1cc(OCc2cccc(C#N)n2)ccc1-c1cnc(C2CCC(F)(F)CC2)[nH]1 [Example 8],83.6,< 0.3,195 to 197 °C
COc1cc(OCc2ccc(C(F)(F)F)cc2)ccc1-c1cnc(-c2ccc(F)nc2)[nH]1 [Example 115],15.5,2,125 to 135 °C
COc1cc(OCc2ccc(C(F)(F)F)nc2)ccc1-c1nc(-c2ccc(Cl)nc2)n(C)c1Br [Example 298],108,1.6,177 to 182 °C
COc1cc(OCc2ccc(Br)cc2F)ccc1-c1c[nH]c(C2CC2)n1 [Example 83],27.8,2.9,157 to 160 °C
COc1cc(OCc2ccc(C(F)(F)F)nc2)ccc1-c1[nH]c(C2CCC(F)(F)C2)nc1Cl (stereo not drawn) [Example 180],89.1,0.4,172 to 174 °C
